The target in this assay is T1, CCK-1 receptor (Homo sapiens, UniProt P32238).
T1 construct: expressed in transfected cells; membranes
T1 sequence (P32238 1-428): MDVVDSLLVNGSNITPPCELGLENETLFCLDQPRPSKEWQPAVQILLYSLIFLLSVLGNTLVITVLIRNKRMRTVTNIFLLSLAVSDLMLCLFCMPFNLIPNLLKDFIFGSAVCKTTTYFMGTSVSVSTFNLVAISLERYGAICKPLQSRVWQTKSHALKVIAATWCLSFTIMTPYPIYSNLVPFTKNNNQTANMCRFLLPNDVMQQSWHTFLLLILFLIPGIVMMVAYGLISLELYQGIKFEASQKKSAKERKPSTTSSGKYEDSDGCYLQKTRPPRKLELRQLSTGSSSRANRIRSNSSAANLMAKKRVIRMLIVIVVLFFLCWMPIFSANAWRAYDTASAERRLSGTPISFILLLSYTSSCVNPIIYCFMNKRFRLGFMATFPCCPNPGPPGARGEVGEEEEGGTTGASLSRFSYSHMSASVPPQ
In words: CCK-1 receptor radioligand binding assay ([125I]-BH-CCK-8S displacement, membranes of stably transfected CHO-K1 cells). The conditions noted are these: membranes of CHO-K1 cells stably transfected with CCK-1 receptor, 0.3 μM PD-134,308 present. As for the experimental part:
CHO-K1 cells that had undergone-stable transfection with the CCK-1 receptor were grown in DMEM supplemented with L-glutamine (2 mM), penicillin (50 units/mL) and streptomycin (50 μg/mL). Cells were cultured under continuous G418 selection (2 mM) and were harvested using a rubber cell scraper. CHO-K1 cells were sub-cultured a maximum of ten times before being reseeded from the original stocks.
Membranes were prepared from the stably transfected CHO-K1 cells. Frozen cell pellets (−40° C.) were thawed in 14 mL of buffer A (10 mM HEPES, 130 mM NaCl, 4.7 mM KCl, 5 mM MgCl, 1 mM EGTA and 15.4 mg/100 mL bacitracin at pH 7.2), adapted from Harper et al. (Br. J. Pharmacol. (1996) 118, pp 1717-1726). The thawed pellets were homogenized using a Polytron PT-10 (7×1 s). The homogenates were centrifuged for 5 min at 1500 rpm (600×g), and the resulting pellets were discarded. The supernatants were re-centrifuged in order to collect the receptor-membrane pellets (25 min 15,000 rpm; 39,800×g), which were re-suspended in buffer A.
All assays were conducted in 96-well plates (GF/B millipore filter plates) using buffer A, with 0.3 μM PD-134,308, for the dilutions. The CCK-2 receptor ligand was included to eliminate the contribution of this receptor subtype to the binding. For the optimal cell number determination experiments 20 pM [1251]-BH—CCK-8S (50 μL 60 pM solution) was incubated with a range of cell concentrations (2.5×105 to 12.5×10^5 cells/well) in a total volume of 150 μL. Total binding of [1251]-BH—CCK-8S was determined in the presence of 15 μL of buffer A. Non-specific binding of [1 251]-BH—CCK-8S was determined in the presence of 15 μL of 100 μM 2-naphthalenesulphonyl L-aspartyl-(2-phenethyl)amide (2-NAP: see R. A. Hull et al., Br. J. Pharmacol. (1993) 108, pp 734-740), a CCK-1 receptor selective antagonist that is structurally unrelated to the radioligand [1251]-BH—CCK-8S. The assay preparation was incubated for 1 h at 21±3° C., and then the assay was terminated upon rapid filtration of the preparation under reduced pressure. The loaded filters were washed three times using undiluted PBS (100 μL), and then the residues were transferred to 5 mL scintillation tubes. Bound radioactivity was determined using a gamma counter (count time=1 min). From these experiments a cell concentration of 1 pellet in 40 mL of buffer (2.5×10^6 cells/mL) was chosen for use in other assays (below). To validate the radioligand concentration and incubation time for the assay, saturation and kinetic binding studies were also conducted (see M. F. Morton, The Pharmacological Characterization of Cholecystokinin Receptors in the Human Gastrointestinal Tract. PhD Thesis, University of London, 2000). The affinity of novel compounds was estimated by incubating membrane preparations with 15 μL of competing ligand (0.1 pM-1 mM) for 60 min at 21±3° C. The assay was then terminated according to the procedure outlined above.
The pKi values were determined using the equation of Cheng and Prusoff (Biochem. Pharmacol. (1973) 22, pp 3099-3108): [formula]
To circumvent problems associated with computer-assisted data analysis of compounds with low affinity, the data obtained in the current study were weighted according to a method described by Morton (2000). In brief, 100% and 0% specific binding were defined independently using total binding and binding obtained in the presence of a high concentration of the reference antagonist, 2-NAP.

Results on 48 compounds are retold here after US20050020565A1, “CCK-1 receptor modulators” (priority 2003, published 2005).

For orientation: Ki means the equilibrium dissociation constant of an inhibitor or competing ligand from its target. Read a high Ki as a looser hold on the target. In the case of `Cc1cccc([C@H](Cc2cc(-c3ccc4ccccc4c3)n(-c3ccccn3)n2)C(=O)O)c1` [Example 92], the affinity, expressed as Ki, was 6.31 nM.

`Cc1cccc([C@@H](Cc2cc(-c3ccc4ccccc4c3)n(-c3ccccn3)n2)C(=O)O)c1` [Example 93] showed a Ki of 251 nM.

In the case of `COc1ccc(-n2nc(/C=C(\C(=O)O)c3ccc(Cl)c(Cl)c3)cc2-c2ccc(Cl)c(Cl)c2)cc1` [Example 118], the affinity corresponds to a Ki of 5.01 nM. On to `Cc1cccc(C(Cc2cc(-c3ccc4ccccc4c3)n(-c3cccc[n+]3[O-])n2)C(=O)O)c1` (stereo not drawn) [Example 105], for which affinity was put at a Ki of 316 nM. `O=C(O)/C(=C\c1cc(-c2ccc3ccccc3c2)n(-c2cc(Cl)ccc2Cl)n1)c1cccc(Cl)c1` [Example 112] gave a Ki of 3.98 nM. Compound `O=C(O)/C(=C\c1cc(-c2ccc3c(c2)OCO3)n(-c2cc(Cl)ccc2Cl)n1)c1cccc(Cl)c1` [Example 122] had a Ki of 1.58 nM. Take `Cc1cccc(C(Cc2cc(-c3ccc4c(c3)OCO4)n(-c3ccc(Cl)cc3Cl)n2)C(=O)O)c1` (stereo not drawn) [Example 276]: the Ki was 6.31 nM. `Cc1cccc(C(Cc2cc(-c3ccc4ccccc4c3)n(C3CCCCC3)n2)C(=O)O)c1` (stereo not drawn) [Example 51] gave an inhibition constant Ki of 5.01 nM. Compound `Cc1ccc(-c2cc(CC(C[S+]([O-])c3ncn[nH]3)c3cccc(C)c3)nn2-c2ccc(C)cc2)cc1` (stereo not drawn) [Example 136] showed a Ki of 6.31 nM. `Cc1ccc(-c2cc(CC(C(=O)O)c3cccc4ccccc34)nn2Cc2ccccc2)cc1` (stereo not drawn) [Example 195] showed a Ki of 10 nM. With `Cc1cccc(C(Cc2cc(-c3ccc4c(c3)OCO4)nn2CC2CCCCC2)C(=O)O)c1` (stereo not drawn) [Example 82], the affinity corresponds to a Ki of 1260 nM. Consider `COc1ccc(-n2nc(C[C@H](C(=O)O)c3cccc4ccccc34)cc2-c2ccc(C)cc2)cc1` [Example 152], for which the Ki is 12.6 nM. With `Cc1cccc(C(Cc2cc(-c3ccc(Br)c(C)c3)n(C3CCCCC3)n2)C(=O)O)c1` (stereo not drawn) [Example 308], the Ki was 63.1 nM.

Compound `Cc1ccc(-n2nc(CC(C(=O)O)c3cccc(C)c3)cc2-c2ccc(N3CCCC3)cc2)cc1` (stereo not drawn) [Example 352] gave a Ki of 31.6 nM. The same measure for `COc1ccc(-n2nc(CC(C(=O)O)c3coc4ccccc34)cc2-c2ccc(Cl)c(Cl)c2)cc1` (stereo not drawn) [Example 261]: 12.6 nM. `COc1cccc(C(Cc2cc(-c3ccc(C)cc3)n(-c3ccc(C(F)(F)F)cc3)n2)C(=O)O)c1` (stereo not drawn) [Example 177]: the affinity corresponds to a Ki of 12.6 nM.

Compound `Cc1ccc(-c2cc(CC(C(=O)O)c3cccc4ccccc34)nn2-c2ccc(Cl)c(Cl)c2)cc1` (stereo not drawn) [Example 181] gave a Ki of 15.8 nM. `Cc1cccc(C(Cc2cc(-c3ccc4ccccc4c3)nn2Cc2ccncc2)C(=O)O)c1` (stereo not drawn) [Example 88] gave a Ki of 39.8 nM. `Cc1ccc(-n2nc(CC(C(=O)O)c3cccc(C)c3)cc2-c2ccc(Br)cc2)cc1` (stereo not drawn) [Example 77] showed a Ki of 15.8 nM. Compound `COc1ccc(-n2nc(CC(C(=O)N(C)C)c3cccc(C)c3)cc2-c2ccc(C)cc2)cc1` (stereo not drawn) [Example 66] showed a Ki of 20 nM.

Regarding `Cc1ccc(-c2cc(CC(C(=O)O)c3cccc(Cl)c3)nn2-c2ccc(C)cc2)cc1` (stereo not drawn) [Example 168], the affinity corresponds to a Ki of 7.94 nM. For the compound `COc1ccc(-n2nc(CC(C(=O)O)c3cccc(OC)c3)cc2-c2ccc(Cl)c(Cl)c2)cc1` (stereo not drawn) [Example 211], affinity was put at a Ki of 12.6 nM. In turn, `Cc1ccc(-c2cc(CC(C(=O)O)c3cccc(C)c3)nn2-c2ccc(C)cc2)cc1` (stereo not drawn) [Example 40] showed a Ki of 7.94 nM. Next, `Cc1cccc(C(Cc2cc(-c3ccc4ccccc4c3)nn2C2CCCCC2)C(=O)O)c1` (stereo not drawn) [Example 50]: 100 nM; `COc1ccc(-n2nc(C[C@@H](C(=O)O)c3cccc4ccccc34)cc2-c2ccc3c(c2)OCO3)cc1` [Example 28]: 1260 nM.

In turn, `Cc1ccc(-n2nc(CC(C(=O)O)c3cccc(C)c3)cc2-c2ccc(N(C)C)cc2)cc1` (stereo not drawn) [Example 86] gave a Ki of 3.98 nM. Compound `Cc1cccc(C(Cc2cc(-c3cccc(Cl)c3)n(C)n2)C(=O)O)c1` (stereo not drawn) [Example 303] showed a Ki of 1260 nM. In the case of `COc1ccc(-n2nc(CC(C(=O)O)c3cccc4sccc34)cc2-c2ccc(C)cc2)cc1` (stereo not drawn) [Example 153], the Ki is 15.8 nM.

`Cc1ccc(-n2nc(CC(C(=O)O)c3cccc(C)c3)cc2-c2ccc(N(C)C)cc2)cc1` (stereo not drawn) [Example 59] had a Ki of 3.16 nM. The same measure for `COc1ccc(-n2nc(CC(c3cccc(C)c3)c3nnn[nH]3)cc2-c2ccc(C)cc2)cc1` (stereo not drawn) [Example 74]: 6.31 nM; for `COc1cccc(C(Cc2cc(-c3ccc(C)cc3)n(-c3ccc(Cl)c(Cl)c3)n2)C(=O)O)c1` (stereo not drawn) [Example 42]: 6.31 nM; for `Cc1cccc(C(Cc2cc(-c3ccc(OCc4ccccc4)cc3)n(-c3ccc(OC(F)(F)F)cc3)n2)C(=O)O)c1` (stereo not drawn) [Example 58]: 501 nM. In turn, `COc1ccc(-n2nc(C[C@H](CS(=O)(=O)c3ncn[nH]3)c3cccc(C)c3)cc2-c2ccc(Cl)c(Cl)c2)cc1` [Example 138] gave a Ki of 31.6 nM. The compound `Cc1cccc(C(Cc2cc(-c3ccc(N(C)C)cc3)n(-c3ccc(OC(F)(F)F)cc3)n2)C(=O)O)c1` (stereo not drawn) [Example 287] had a Ki of 20 nM.

As to `Cc1ccc(-c2cc(CC(C(=O)O)c3cccc4ccccc34)nn2-c2ccc(C)cc2)cc1` (stereo not drawn) [Example 167], the affinity, expressed as Ki, was 12.6 nM. Compound `Cc1cccc(C(Cc2cc(-c3ccc4ccccc4c3)nn2Cc2ccccc2)C(=O)O)c1` (stereo not drawn) [Example 83] showed an inhibitory constant (Ki) of 63.1 nM. In the case of `COc1ccc(-n2nc(C[C@H](C(=O)O)c3cccc(C)c3)cc2-c2ccc(Cl)c(Cl)c2)cc1` [Example 1], the Ki is 10 nM. The compound `COc1ccc(-n2nc(C[C@@H](C(=O)O)c3cccc(C)c3)cc2-c2ccc(Cl)c(Cl)c2)cc1` [Example 3] gave a Ki of 251 nM. For `COc1cc(-c2cc(CC(C(=O)O)c3cccc(C)c3)nn2-c2ccc(C)cc2)ccc1C` (stereo not drawn) [Example 60], affinity was put at a Ki of 5.01 nM.

With `COc1ccc(-c2cc(C[C@@H](C(=O)O)c3cccc(OC)c3)nn2-c2ccc(OC)cc2)cc1` [Example 31], the affinity corresponds to a Ki of 1000 nM. The compound `COc1ccc(-n2nc(C[C@H](c3cccc(C)c3)c3nnn[nH]3)cc2-c2ccc(Cl)c(Cl)c2)cc1` [Example 131] had a Ki of 126 nM. `COc1ccc(-c2cc(C[C@H](C(=O)O)c3cccc(OC)c3)nn2-c2ccc(OC)cc2)cc1` [Example 32] had a Ki of 63.1 nM. The compound `Cc1ccc(-n2nc(CC(C(=O)O)c3cccc(C)c3)cc2-c2ccc3c(c2)CCN3C)cc1` (stereo not drawn) [Example 87] showed a Ki of 25.1 nM. The same measure for `Cc1ccc(-c2cc(CC(C(=O)O)c3cccc(C(F)(F)F)c3F)nn2-c2ccc(Cl)c(Cl)c2)cc1` (stereo not drawn) [Example 21]: 158 nM; for `COc1ccc(-n2nc(CC(C(=O)O)c3ccccc3C(F)(F)F)cc2-c2ccc(Cl)c(Cl)c2)cc1` (stereo not drawn) [Example 19]: 31.6 nM.

In turn, `COc1ccc(-n2nc(CC(C(=O)O)c3cccc(F)c3F)cc2-c2ccc(Cl)c(Cl)c2)cc1` (stereo not drawn) [Example 18] showed a Ki of 39.8 nM.

For the compound `Cc1ccc(-c2cc(CC(C(=O)O)c3cccc4sccc34)nn2-c2ccc(Cl)c(Cl)c2)cc1` (stereo not drawn) [Example 190], the Ki was 10 nM. With `COc1ccc(-n2nc(CC(C(=O)O)c3cccc(C)c3)cc2-c2ccc(C)cc2)cc1` (stereo not drawn) [Example 148], the Ki was 15.8 nM.
